Measurements reported in US20230233532A1, “SPHINGOSINE-1-PHOSPHATE RECEPTOR 1 AGONIST AND LIPOSOMAL FORMULATIONS THEREOF” (The Penn State Research Foundation, priority 2020, published 2023).

Experiments:
[1] = system: intact rat mesenteric venules; assay: Hydraulic conductivity (Lp) in individually perfused rat mesenteric microvessels; assay type: in vivo
Method: Experiments were undertaken on mesenteric venules from female Sprague-Dawley rats (2-3-month old, 220-250 g body weight, Sage Laboratory). Inactin hydrate was used for anesthesia through subcutaneous administration. The initial dosage of inactin was 180 mg/kg body weight and an additional 5 mg/dose given as needed. After the rat reached the appropriate plane of anesthesia, determined by the loss of the toe pinch response and the righting reflex, a midline surgical incision was made in the abdominal wall. A loop of the ileum was gently extended from the abdominal cavity and the mesentery was spread over a pillar attached to an animal tray. The upper surface of the mesentery was continuously perfused with mammalian Ringer's solution at 37° C. All experiments were carried out on venules with diameters ranging between […]. Each experiment was performed on a single vessel with one experiment per animal. Euthanasia was performed through bilateral thoracotomy while animals were under anesthesia. Microvessel permeability was assessed by measuring one of the permeability coefficients, hydraulic conductivity, Lp, using the modified […] technique. The assumptions and limitations of the method have been evaluated in detail (31-33). […] The initial water flux (Jv) per unit area of microvessel wall (S), (Jv/S)0, was calculated from the velocity of the marker cell after the vessel was occluded, the vessel radius, and the length between the marker cell and the occlusion site. Microvessel Lp was calculated from the Starling equation, Lp=(Jv/S)/ΔP, where ΔP represents the pressure difference between the hydrostatic pressure applied to the microvessel and the effective oncotic pressure generated from the albumin in the perfusate, assuming the tissue hydrostatic and oncotic pressures are negligible (31). In each experiment, baseline Lp and the stimulus-induced Lp changes were measured in the same vessel, which allows the changes to be compared with its own control. […]

HUVEC = HUVEC monolayer model of endothelial gap formation (VE-cadherin staining); assay type: cell-based, human; conditions: for EC gap formation, screening of inflammatory inhibitors: FIG. 8, 5 μM; for EC gap formation induced by VEGF / EC gap formation induced by IL-8 / EC gap formation induced by BK / EC gap formation, agonist alone: 5 μM; for EC gap formation induced by VEGF: 100 ng/ml VEGF; for EC gap formation induced by IL-8: 150 ng/ml IL-8; for EC gap formation induced by BK: 0.5 μM BK; for EC gap formation, agonist alone: no inflammatory mediator
Method: HUVECs were seeded on coverslips coated with fibronectin (Millipore Sigma) and cultured to confluency. […] HUVECs fixed with 2% cold paraformaldehyde (Electron Microscopy Science) and treated with 0.1% triton X-100 (Fisher) were exposed to a human VE-cadherin antibody (Santa Cruz) followed by the secondary antibody conjugated with Alexa488 (Invitrogen). Coverslips were mounted to slides using the antifade mounting medium with DAPI (Vector Laboratories).

[2] = system: S1PR1 in HEK293A-S1P1-GFP cells; assay: S1PR1 internalization assay; assay type: cell-based; conditions: 5 μM W146
Method: […] cells were plated on collagen-coated coverslips (30). Cells were cultured overnight in DMEM with 2% charcoal-stripped serum. Prior to the experiment, cells were cultured in serum-free DMEM for 1.5 hours.

A375M-GFP melanoma cells = assay: Experimental lung metastasis model, A375M-GFP; assay type: in vivo, Athymic Foxn1nu nude mice; conditions: 5 mg/kg intraperitoneally 6, 12 or 18 hours before cells, day 29; control 62
Method: […] lacking Compound I (Lipo) vehicle control, for 6, 12 or 18 hours prior to intravenous injection of 1 million A375M-GFP cells through the tail vein. […] For experiments using UACC 903M-GFP and 1205Lu-GFP cells, 15 mg/kg of the nanoliposomal formulation were given 6 hours before cancer cell injection. Body weight was monitored to ensure no significant toxicity during the experimental metastasis assay. On day 29, whole lungs were removed and imaged by fluorescent microscopy to quantify the numbers of metastatic nodules in a double-blinded manner.

S1PR1 = S1PR1 (Homo sapiens, UniProt P21453); assay: S1P1 GPCR cell-based agonist arrestin biosensor assay (Eurofins DiscoverX); conditions: FIG. 1C
Excerpt: 4-Phenyl-5-trifluoromethyl-thiophene-2-carboxylic acid (1) was first converted in situ to the corresponding acid chloride by treating with oxalyl chloride in the presence of catalytic N,N-dimethyl formamide. […] The structures of Intermediate 3 and Compound I were characterized on the basis of NMR and mass spectrometry.

[3] = system: myosin light chain (MLC) phosphorylation; assay: Western blotting of MLC phosphorylation in HUVEC; assay type: cell-based, human
Method: (§1) A monolayer of HUVEC cells following varying treatments were lyzed in RIPA buffer containing protease and phosphatase inhibitors (Pierce Biotechnologies). 20 μg of cell lysate was used for western blotting and probed with antibodies according to the suppliers' recommendations to assess off target effects on several major signaling pathways. Antibodies to p-ERK, ERK, p-PI3K, PI3K, p-FAK, FAK, p-PAK1, PAK1, p-PAK2, PAK2, p-MLC, p-NF-κB, NF-κB were used to probe western blots (Cell Signaling). α-Tubulin (Millipore Sigma) was used as a loading control.

[4] = system: MAPK/ERK, PI3K/AKT, NF-κB and vascular permeability regulation pathways; assay: Off-target effects on key signaling pathways by western blotting in HUVEC; assay type: cell-based, human; conditions: versus DMSO control
Method: as §1

S1PR1, sequence (P21453 whole entry): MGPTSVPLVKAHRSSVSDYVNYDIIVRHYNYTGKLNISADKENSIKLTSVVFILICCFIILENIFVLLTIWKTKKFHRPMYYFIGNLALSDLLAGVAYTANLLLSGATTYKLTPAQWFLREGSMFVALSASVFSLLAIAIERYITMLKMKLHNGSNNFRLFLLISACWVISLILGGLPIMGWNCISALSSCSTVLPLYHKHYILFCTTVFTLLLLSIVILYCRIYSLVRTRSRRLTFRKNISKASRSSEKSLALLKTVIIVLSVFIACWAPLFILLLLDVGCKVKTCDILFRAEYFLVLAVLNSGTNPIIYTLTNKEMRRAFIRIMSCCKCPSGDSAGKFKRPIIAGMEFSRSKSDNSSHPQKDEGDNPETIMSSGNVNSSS

## CCCCCCc1cccc(NC(=O)[C@H](N)CCP(=O)(O)O)c1 [Compound W146]
[1]; W146 10 μM
  effect of W146 on the formulation's inhibition of PAF-induced Lp increase: abolished the effect of the nanoliposomal formulation
HUVEC; 5 μM W146
  effect of W146 on Compound I inhibition of BK-mediated EC gap formation: blocked the effect of Compound I
[2]
  effect of W146 on internalization mediated by Compound I and SEW2871: blocked

## O=C(Nc1c(Cl)cncc1Cl)c1ccc(OC(F)F)c(OCC2CC2)c1 [Roflumilast]
HUVEC
  EC gap formation, screening of inflammatory inhibitors: did not decrease EC gap formation

## CC(=O)N1CCN(C(=O)/C=C/c2ccc(Sc3ccccc3C(C)C)c([N+](=O)[O-])c2)CC1 [Compound A286982]
HUVEC
  EC gap formation, screening of inflammatory inhibitors: did not decrease EC gap formation

## C=CC[C@@H]1/C=C(\C)C[C@H](C)C[C@H](OC)[C@H]2O[C@@](O)(C(=O)C(=O)N3CCCC[C@H]3C(=O)O[C@H](/C(C)=C/[C@@H]3CC[C@@H](O)[C@H](OC)C3)[C@H](C)[C@@H](O)CC1=O)[C@H](C)C[C@@H]2OC [Tacrolimus]
HUVEC
  EC gap formation, screening of inflammatory inhibitors: did not decrease EC gap formation

## FC(F)(F)c1cccc(-c2noc(-c3cc(-c4ccccc4)c(C(F)(F)F)s3)n2)c1 [SEW2871]
[1]; PAF 10 nM in presence of SEW2871 10 PM (printed), n=6
  PAF-induced mean Lp: 1.73±0.15 times that of the control
[1]; SEW2871 10 PM (printed), perfusion 30 minutes
  effect on baseline Lp: did not change the baseline Lp
HUVEC
  EC gap formation induced by VEGF: reduced the EC gap formation
  EC gap formation induced by IL-8: reduced the EC gap formation
  EC gap formation induced by BK: reduced the EC gap formation
  EC gap formation, agonist alone: did not affect EC gap formation
  EC gap formation, screening of inflammatory inhibitors: inhibited EC gap formation
HUVEC; confluent HUVEC monolayer
  endothelial gap formation induced by MIC-1 and BK: inhibited the endothelial gap formation
A375M-GFP melanoma cells
  metastatic nodules in the lung: 17-27

## Oc1cccc(-c2noc(-c3cc(-c4ccccc4)c(C(F)(F)F)s3)n2)c1 [Compound I, 3-[5-(4-Phenyl-5-trifluoromethyl-thiophen-2-yl)-[1,2,4]oxadiazol-3-yl]-phenol]
S1PR1
  EC50: 43 nM
HUVEC
  EC gap formation induced by VEGF: reduced the EC gap formation
  EC gap formation induced by IL-8: reduced the EC gap formation
  EC gap formation induced by BK: reduced the EC gap formation
  EC gap formation, agonist alone: did not affect EC gap formation
  EC gap formation, screening of inflammatory inhibitors: inhibited EC gap formation
HUVEC; confluent HUVEC monolayer
  endothelial gap formation induced by MIC-1 and BK: inhibited the endothelial gap formation
  endothelial gap formation induced by MIC-1 and VEGF: inhibited the endothelial gap formation
[3]; FIG. 15E
  MLC phosphorylation induced by MIC-1 and inflammatory mediators: inhibited the MLC phosphorylation
[3]; HUVEC, western blotting
  pMLC levels raised by BK, VEGF or IL-8: reverse and decrease the pMLC levels
  pMLC levels, Compound I alone: did not increase pMLC levels
[4]
  levels or activity of biomarker proteins in signaling pathways (off-target effects): No significant changes

## COC(=O)c1ccc2c(c1)NC(=O)/C2=C(\Nc1ccc(N(C)C(=O)CN2CCN(C)CC2)cc1)c1ccccc1 [Nintedanib]
HUVEC
  EC gap formation, screening of inflammatory inhibitors: did not decrease EC gap formation
